# ChEMBL document CHEMBL1136015, “Inhibitors of human histone deacetylase: synthesis and enzyme and cellular activity of straight chain hydroxamates” (J Med Chem, 2002)
# pIC50: −log10 of the molar value. Square brackets hold non-standard residues; d marks the D form. Peptide text beside a SMILES is read from it. Aoe = N[C@@H](CCCCCC(=O)[C@@H]1CO1)C(=O)O
# Legend:
# [1] = molecular target: Histone deacetylase; test: Induction of p21 using Histone deacetylase inhibitors; assay type: protein assay, Homo sapiens
# [2] = molecular target: Histone deacetylase; test: Concentration required to inhibit human Histone deacetylase (HDAC) enzyme by 50%; assay type: protein assay
# [3] = system: HCT-116; test: Concentration required to inhibit the HCT116 cell growth by 50%.; assay type: functional, cell-based; details: Homo sapiens
# [4] = system: SW-620; test: Concentration required to inhibit the colon SW 620 cell growth by 50%,P53 status of cell line used was mutant-type.; assay type: functional, cell-based; details: Homo sapiens
# [5] = system: A549; test: Concentration required to inhibit the lung A549 cell growth by 50%,P53 status of cell line used was wild-type.; assay type: functional, cell-based; details: Homo sapiens
# [6] = Concentration required to inhibit the breast MDA-MB-435S cell growth by 50%,P53 status of cell line used was mutant-type.; assay type: functional; details: Homo sapiens
# [7] = system: A-431; test: Concentration required to inhibit the epidermoid A431 cell growth by 50%, P53 status of cell line used was mutant.; details: Homo sapiens
# [8] = system: T-24; test: Concentration required to inhibit the bladder T24 cell growth by 50%,P53 status of cell line used was mutant.; details: Homo sapiens
# [9] = molecular target: Histone deacetylase; test: Concentration required to inhibit the partially purified HDAC enzyme by 50% obtained from H1299 cell lysate; assay type: functional, cell-based, Homo sapiens
# [10] = system: NCI-H1299; test: Concentration required to inhibit the lung H1299 cell growth by 50%,P53 status of cell line used was deleted.; details: Homo sapiens
# [11] = system: HCT-116; test: Concentration required to inhibit the colon HCT116 cell growth by 50%,P53 status of cell line used was wild-type.; assay type: functional, cell-based; details: Homo sapiens
# [12] = system: LS174T; test: Concentration required to inhibit the colon LS 174T cell growth by 50%,P53 status of cell line used was […].; assay type: functional, cell-based; details: Homo sapiens
Compound,AC50 [1] [µM],IC50 [2] [µM],pIC50 [3],IC50 [9] [µM],further results
O=C(CCCCCNC(=O)c1ccc([N+](=O)[O-])cc1)NO,> 10,1.556,–,–,–
CN(C)c1ccc(C(=O)NCCCCCCC(=O)NO)cc1,2.1,0.046,6.68,1.62,pIC50 [4]: 6.15; pIC50 [5]: 6.10; pIC50 [6]: 5.89; pIC50 [7]: 5.64; pIC50 [8]: 5.42; pIC50 [10]: 5.41; pIC50 [11]: 6.70; pIC50 [12]: 5.82
CN(C)c1ccc(C(=O)NCCCCC(=O)NO)cc1,> 10,> 10,–,–,–
CN(C)c1ccc(C(=O)NCCCCCCCC(=O)NO)cc1,1.6,0.145,6.30,2.18,–
O=C(CCCCCNC(=O)c1ccc(-c2ccccc2)cc1)NO,> 10,0.265,–,–,–
O=C(CCCCCNC(=O)c1ccc(Cl)cc1)NO,> 10,0.369,–,–,–
O=C(CCCCCN1C(=O)c2ccccc2C1=O)NO,7.5,0.515,–,–,–
O=C(CCCCCNC(=O)c1ccc(OCc2ccccc2)cc1)NO,> 10,0.22,–,–,–
O=C(O)CCCCCCC(=O)c1ccccc1,4.1,0.27,5.76,> 10,–
CONC(=O)CCCCCNC(=O)c1ccccc1,> 10,> 10,–,–,–
NNC(=O)CCCCCNC(=O)c1ccccc1,> 10,> 10,–,–,–
O=C(CCCCCCC(=O)Nc1ccccn1)NO,–,–,5.70,–,–
O=C(CCCCCCC(=O)Nc1ccncc1)NO,8.9,0.306,5.27,> 10,–
COc1ccc(NC(=O)CCCCCCC(=O)NO)cc1,2.4,0.279,< 5.00,> 10,–
CN(CCCCCC(=O)NO)C(=O)c1ccc(N(C)C)cc1,> 10,0.443,–,–,–
O=C(CCCCCCNC(=O)c1ccccc1)NO,5.7,0.568,5.98,> 10,–
O=C(CCCCCCC(=O)Nc1cccnc1)NO [PYROXAMIDE],–,–,5.19,–,–
O=C1N[C@@H](Cc2ccccc2)C(=O)N2CCC[C@@H]2C(=O)N[C@@H](CCCCCC(=O)[C@@H]2CO2)C(=O)N[C@H]1Cc1ccccc1 [TRAPOXIN B] (cyclo(FF[dP][Aoe])),–,–,8.70,–,–
CC(/C=C/C(=O)NO)=C\[C@@H](C)C(=O)c1ccc(N(C)C)cc1 [TRICHOSTATIN],–,–,7.89,–,–
